Source: ChEMBL document CHEMBL5370549, “Optimization and evaluation of pyridinyl vinyl sulfones as Nrf2 activator for the antioxidant and anti-inflammatory effects” (Eur J Med Chem, 2023)
Structures can show the parent of a compound that is named as a salt.

Tests used:
CYP3A4 = CYP3A4 (Homo sapiens, UniProt P08684); assay: Inhibition of CYP3A4 (unknown origin) assessed as enzyme activity at 10 uM relative to control; type: ADME; set-up: scale not given: the % may be the effect or the level left; settings: read-out: Activity
Chain of CYP3A4 (P08684 whole entry): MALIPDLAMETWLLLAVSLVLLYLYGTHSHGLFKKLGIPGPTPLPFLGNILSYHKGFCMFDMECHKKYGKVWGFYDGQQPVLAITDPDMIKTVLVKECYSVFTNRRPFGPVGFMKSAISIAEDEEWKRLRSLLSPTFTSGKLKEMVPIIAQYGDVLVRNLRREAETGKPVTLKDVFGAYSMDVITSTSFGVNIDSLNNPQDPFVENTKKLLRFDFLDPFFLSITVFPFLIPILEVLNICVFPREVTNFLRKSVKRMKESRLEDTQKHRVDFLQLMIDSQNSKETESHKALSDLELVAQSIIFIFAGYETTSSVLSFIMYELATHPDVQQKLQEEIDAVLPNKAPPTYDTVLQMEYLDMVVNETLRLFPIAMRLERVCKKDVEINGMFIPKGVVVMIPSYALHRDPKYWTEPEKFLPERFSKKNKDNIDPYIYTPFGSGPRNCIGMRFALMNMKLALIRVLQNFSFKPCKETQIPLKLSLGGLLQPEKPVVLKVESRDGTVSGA

CYP2C19 = CYP2C19 (Homo sapiens, UniProt P33261); assay: Inhibition of CYP2C19 (unknown origin) assessed as enzyme activity at 10 uM relative to control; type: ADME; set-up: scale not given: the % may be the effect or the level left; settings: read-out: Activity
Chain of CYP2C19 (P33261 whole entry): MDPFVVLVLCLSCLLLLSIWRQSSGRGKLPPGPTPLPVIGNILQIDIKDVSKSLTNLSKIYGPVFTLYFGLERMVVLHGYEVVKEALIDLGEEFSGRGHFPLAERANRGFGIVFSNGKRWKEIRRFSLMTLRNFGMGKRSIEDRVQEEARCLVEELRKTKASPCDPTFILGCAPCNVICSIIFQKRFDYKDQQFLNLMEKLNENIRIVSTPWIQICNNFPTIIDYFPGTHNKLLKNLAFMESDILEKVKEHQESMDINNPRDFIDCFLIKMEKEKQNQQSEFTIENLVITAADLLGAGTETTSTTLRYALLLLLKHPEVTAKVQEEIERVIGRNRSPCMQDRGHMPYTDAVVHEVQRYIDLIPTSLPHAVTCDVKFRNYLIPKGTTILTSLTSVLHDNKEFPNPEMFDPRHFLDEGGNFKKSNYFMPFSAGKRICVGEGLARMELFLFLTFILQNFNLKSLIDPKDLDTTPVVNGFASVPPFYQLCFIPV

[1] = Metabolic stability of the compound in rat plasma assessed as parent compound remaining measured after 30 mins; type: ADME, cell-free; settings: read-out: Stability
[2] = Metabolic stability of the compound in human plasma assessed as parent compound remaining measured after 30 mins; type: ADME, cell-free; settings: read-out: Stability
[3] = Metabolic stability of the compound in mouse liver microsomes assessed as parent compound remaining measured after 30 mins; type: ADME, Microsome; settings: read-out: Stability
CYP1A2 = biological target: T1, CYP1A2 (Homo sapiens, UniProt P05177); assay: Inhibition of CYP1A2 (unknown origin) assessed as enzyme activity at 10 uM relative to control; type: ADME; set-up: scale not given: the % may be the effect or the level left; settings: read-out: Activity
T1 sequence (P05177 whole entry): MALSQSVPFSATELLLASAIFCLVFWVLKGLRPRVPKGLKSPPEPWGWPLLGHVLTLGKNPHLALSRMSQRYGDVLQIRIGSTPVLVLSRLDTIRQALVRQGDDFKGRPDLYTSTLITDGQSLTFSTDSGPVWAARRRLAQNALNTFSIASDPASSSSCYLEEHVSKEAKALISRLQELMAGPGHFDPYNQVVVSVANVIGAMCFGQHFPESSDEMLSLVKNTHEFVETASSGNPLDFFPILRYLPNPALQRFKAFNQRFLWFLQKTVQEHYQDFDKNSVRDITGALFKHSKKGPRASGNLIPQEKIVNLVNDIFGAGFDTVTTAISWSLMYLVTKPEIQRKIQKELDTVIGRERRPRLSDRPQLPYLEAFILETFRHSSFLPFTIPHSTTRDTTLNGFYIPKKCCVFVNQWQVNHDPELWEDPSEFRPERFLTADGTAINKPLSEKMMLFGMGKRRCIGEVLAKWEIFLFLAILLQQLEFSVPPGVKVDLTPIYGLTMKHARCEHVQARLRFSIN

[4] = Metabolic stability of the compound in human liver microsomes assessed as parent compound remaining measured after 30 mins; type: ADME, Microsome; settings: read-out: Stability
CYP2D6 = CYP2D6 (Homo sapiens, UniProt P10635); assay: Inhibition of CYP2D6 (unknown origin) assessed as enzyme activity at 10 uM relative to control; type: ADME; set-up: scale not given: the % may be the effect or the level left; settings: read-out: Activity
Chain of CYP2D6 (P10635 whole entry): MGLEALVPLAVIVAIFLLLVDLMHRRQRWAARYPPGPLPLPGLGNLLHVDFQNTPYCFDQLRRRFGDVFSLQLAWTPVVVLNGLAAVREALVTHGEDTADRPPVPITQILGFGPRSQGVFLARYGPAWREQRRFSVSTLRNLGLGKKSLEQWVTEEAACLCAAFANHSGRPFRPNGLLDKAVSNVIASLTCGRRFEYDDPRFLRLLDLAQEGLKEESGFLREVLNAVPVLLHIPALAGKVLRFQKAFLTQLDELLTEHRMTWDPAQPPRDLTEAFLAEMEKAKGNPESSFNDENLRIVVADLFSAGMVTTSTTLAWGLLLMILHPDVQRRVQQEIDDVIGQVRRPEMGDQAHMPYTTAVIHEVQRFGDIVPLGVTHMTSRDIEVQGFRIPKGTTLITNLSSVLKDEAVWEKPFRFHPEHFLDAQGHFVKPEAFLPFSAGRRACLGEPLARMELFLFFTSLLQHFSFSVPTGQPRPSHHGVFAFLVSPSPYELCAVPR

CYP2C9 = CYP2C9 (Homo sapiens, UniProt P11712); assay: Inhibition of CYP2C9 (unknown origin) assessed as enzyme activity at 10 uM relative to control; type: ADME; set-up: scale not given: the % may be the effect or the level left; settings: read-out: Activity
Chain of CYP2C9 (P11712 whole entry): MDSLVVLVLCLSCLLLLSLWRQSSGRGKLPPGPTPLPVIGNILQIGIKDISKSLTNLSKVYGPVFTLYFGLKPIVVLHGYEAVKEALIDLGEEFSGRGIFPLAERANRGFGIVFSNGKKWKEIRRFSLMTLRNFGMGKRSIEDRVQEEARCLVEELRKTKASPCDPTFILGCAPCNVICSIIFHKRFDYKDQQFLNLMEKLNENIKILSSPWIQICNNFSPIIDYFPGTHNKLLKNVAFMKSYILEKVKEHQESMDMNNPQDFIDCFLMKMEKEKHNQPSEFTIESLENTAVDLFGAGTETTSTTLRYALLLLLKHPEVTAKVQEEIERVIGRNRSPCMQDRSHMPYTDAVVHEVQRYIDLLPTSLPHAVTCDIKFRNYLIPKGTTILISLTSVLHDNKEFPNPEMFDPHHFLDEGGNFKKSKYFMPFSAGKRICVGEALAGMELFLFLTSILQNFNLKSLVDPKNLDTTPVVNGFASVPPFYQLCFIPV

[5] = biological target: T2, Nuclear factor erythroid 2-related factor 2 (Homo sapiens, UniProt Q16236); assay: Activation of Nrf2 in human U2OS cells co-expressing Keap1 assessed as induction of Nrf2 nuclear translocation incubated for 6 hrs by PathHunter chemiluminescence based analysis; type: cell-based
T2 sequence (Q16236 whole entry): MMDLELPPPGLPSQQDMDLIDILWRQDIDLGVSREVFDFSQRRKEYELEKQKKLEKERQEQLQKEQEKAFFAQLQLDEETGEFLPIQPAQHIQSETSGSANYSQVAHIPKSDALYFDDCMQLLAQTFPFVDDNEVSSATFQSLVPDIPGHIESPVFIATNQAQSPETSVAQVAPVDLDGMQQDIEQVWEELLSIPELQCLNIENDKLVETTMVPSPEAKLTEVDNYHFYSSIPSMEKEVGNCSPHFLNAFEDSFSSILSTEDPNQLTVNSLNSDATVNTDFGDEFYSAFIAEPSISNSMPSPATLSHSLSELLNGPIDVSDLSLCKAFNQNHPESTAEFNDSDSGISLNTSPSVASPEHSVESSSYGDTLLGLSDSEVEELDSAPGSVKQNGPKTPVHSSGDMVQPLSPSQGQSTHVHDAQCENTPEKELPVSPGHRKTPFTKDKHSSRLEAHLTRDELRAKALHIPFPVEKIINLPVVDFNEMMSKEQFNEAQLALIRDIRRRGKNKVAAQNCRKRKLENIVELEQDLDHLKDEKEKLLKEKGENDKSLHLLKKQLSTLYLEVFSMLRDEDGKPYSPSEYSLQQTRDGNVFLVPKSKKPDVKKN

Row | Structure (SMILES) | activity at 10 µM (CYP3A4) | activity at 10 µM (CYP2C19) | remaining at 0.5 h [1] | remaining at 0.5 h [2] | remaining at 0.5 h [3] | activity at 10 µM (CYP1A2) | remaining at 0.5 h [4] | activity at 10 µM (CYP2D6) | activity at 10 µM (CYP2C9) | EC50 [5]
1 | COc1ncccc1S(=O)(=O)/C=C/c1ncccc1Cl | 53% | 15% | 91.3% | 98.5% | 59.2% | 31% | 77.6% | > 99% | > 99% | 75 nM
2 | COc1ncccc1S(=O)(=O)/C=C/c1ccccc1Cl | 48.5% | 7.1% | 98.9% | > 99% | 48.1% | 10.7% | 75.2% | 99.5% | > 99% | 189 nM
3 | COc1ccnc(S(=O)(=O)/C=C/c2ncccc2Cl)c1 | 70.9% | 27.6% | 65.9% | 95% | 36.8% | 69.9% | 61.7% | 100% | 76.1% | 30 nM
4 | COc1cccc(S(=O)(=O)/C=C/c2ncccc2C(F)(F)F)n1 | 32.5% | 15.1% | 82.7% | 94.2% | 4% | 18.2% | 38.8% | > 99% | 81.9% | 194 nM
5 | COc1ccnc(S(=O)(=O)/C=C/c2ccnc(Cl)c2)c1 | > 99% | 24.3% | 59% | 93.1% | 64.5% | 89.6% | 88.4% | > 99% | > 99% | 400 nM
6 | COc1ccnc(S(=O)(=O)/C=C/c2ccccc2Cl)c1 | 49.8% | 11.1% | 96.5% | > 99% | 2.2% | 28.5% | 22.8% | 97.5% | 73.6% | 58 nM
7 | COc1ccnc([S+]([O-])/C=C/c2ccccc2C(F)(F)F)c1 (stereo unspecified) | 45.1% | 6.4% | 92.2% | 96% | 1.4% | 34.3% | 40.6% | 85.7% | 81.9% | –
8 | COc1ccnc(S(=O)(=O)/C=C/c2ncccc2C(F)(F)F)c1 | 83.2% | 29.8% | 82.4% | 90.9% | 19% | 72.2% | 63.2% | > 99% | 31% | 174 nM
9 | COc1ncccc1S(=O)(=O)/C=C/c1ncccc1C(F)(F)F | 51.7% | 17.6% | 88.6% | 97.4% | 29.9% | 57.3% | 59.4% | > 99% | > 99% | 214 nM
10 | COc1ccncc1S(=O)(=O)/C=C/c1ccccc1C(F)(F)F | 12% | 23.5% | – | – | 71.9% | 12.1% | 82.9% | 85.1% | > 99% | 248 nM
11 | COc1cccnc1[S+]([O-])/C=C/c1ccccc1C(F)(F)F (stereo unspecified) | 36.9% | 32.9% | > 99% | > 99% | 5% | 32.8% | 46.3% | 95.9% | 56.3% | –
12 | COc1ccncc1S(=O)(=O)/C=C/c1ncccc1Cl | 15.7% | 42.9% | – | – | 77.1% | 79.5% | 91.4% | 88.7% | > 99% | 51 nM

Results, then the molecule that gave them:

Row | activity at 10 µM (CYP3A4) | activity at 10 µM (CYP2C19) | remaining at 0.5 h [1] | remaining at 0.5 h [2] | remaining at 0.5 h [3] | activity at 10 µM (CYP1A2) | remaining at 0.5 h [4] | activity at 10 µM (CYP2D6) | activity at 10 µM (CYP2C9) | EC50 [5] | Structure (SMILES)
13 | 51.7% | 16.2% | 89.3% | 91.3% | 48.1% | 12.4% | 75.2% | 94.4% | > 99% | 749 nM | COc1ncccc1S(=O)(=O)/C=C/c1ccccc1C(F)(F)F
14 | > 99% | 17.9% | 97.3% | 98.6% | 82.1% | 83% | 65.8% | > 99% | 91.7% | 914 nM | COc1ccnc(S(=O)(=O)/C=C/c2ccc(Cl)nc2)c1
15 | – | – | – | – | – | – | – | – | – | > 10000 nM | COC(=O)/C=C/C(=O)O [MONOMETHYL FUMARATE]
16 | 70.2% | 22.4% | 43.4% | 83.6% | 50.4% | 29.9% | 77.3% | 69.8% | > 99% | 32 nM | COc1ccnc(S(=O)(=O)/C=C/c2ccncc2Cl)c1
17 | 30.6% | 13.2% | 91.8% | 98.4% | 6% | 4.9% | 19.3% | 91.7% | 71% | 316 nM | COc1cccc(S(=O)(=O)/C=C/c2ccccc2C(F)(F)F)n1
18 | 88.9% | 21.7% | 91.9% | 96.2% | 60.1% | 61.1% | 57.2% | > 99% | > 99% | 275 nM | COc1ccc(S(=O)(=O)/C=C/c2ncccc2C(F)(F)F)nc1
19 | 36.8% | 12.5% | 83% | > 99% | 9.6% | 23.1% | 49.4% | 96% | > 99% | 93 nM | COc1cccc(S(=O)(=O)/C=C/c2ncccc2Cl)n1
20 | 27.4% | 8.2% | 94.3% | 96.5% | 1.4% | 3.7% | 1% | 91.3% | > 99% | – | COc1cccnc1C(=O)/C=C/c1ccccc1C(F)(F)F
21 | – | – | – | – | – | – | – | – | – | 5110 nM | COC(=O)/C=C/C(=O)OC [DIMETHYL FUMARATE]
22 | 78% | 2.5% | 89% | > 99% | 1% | 48.8% | 28% | 94% | > 99% | – | COc1ccc([S+]([O-])/C=C/c2ccccc2C(F)(F)F)nc1 (stereo unspecified)
23 | > 99% | > 99% | – | – | > 99% | 82.1% | > 99% | 91.9% | 66.5% | 1870 nM | COc1cccnc1/C=C/S(=O)(=O)c1ncccc1OC
24 | 38.3% | 5.5% | 89.8% | 82.4% | 1.1% | 4.9% | 6.3% | 72.6% | 78.3% | – | COc1cccc([S+]([O-])/C=C/c2ccccc2C(F)(F)F)n1 (stereo unspecified)
